Test results: US10040838B2, “CRHR2 peptide agonists and uses thereof” (JANSSEN PHARMACEUTICA NV, priority 2008, dated 2018)
Residues, ends and D or L forms follow the SMILES beside them. No end group written: not given here. *: point of attachment. Succinimide(1-Et,3-yl) = CCN1C(=O)CC(*)C1=O

What follows are compounds tested against T1, human CRHR2 (Homo sapiens, UniProt Q13324) (assay: cAMP assay in h-CRHR2 transfected SK-N-MC cells). Settings: Table 12; Hill slope.
T1 construct: expressed in transfected cells
T1 sequence (Q13324 1-411): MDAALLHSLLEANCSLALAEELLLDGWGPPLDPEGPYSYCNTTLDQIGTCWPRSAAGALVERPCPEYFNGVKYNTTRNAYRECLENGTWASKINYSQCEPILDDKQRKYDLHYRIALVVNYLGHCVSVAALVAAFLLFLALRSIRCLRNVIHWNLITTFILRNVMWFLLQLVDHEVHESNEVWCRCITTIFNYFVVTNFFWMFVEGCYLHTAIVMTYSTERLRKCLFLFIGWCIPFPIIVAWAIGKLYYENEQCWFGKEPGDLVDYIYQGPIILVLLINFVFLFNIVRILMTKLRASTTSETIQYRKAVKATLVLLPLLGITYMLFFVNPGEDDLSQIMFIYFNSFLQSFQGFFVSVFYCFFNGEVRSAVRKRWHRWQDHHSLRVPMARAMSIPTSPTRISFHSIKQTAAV
Format: cell-based
Summary of the method: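 SK-N-MC cells stably expressing human CRHR2 were stimulated with peptides (1 pM-10 μM) for 60 min at 37 °C with 10 μM IBMX, then lysed in 0.5 M HCl. cAMP was quantified by competitive [125I]-cAMP antibody flash-plate assay. Hill-equation fits gave A50/pA50; Log DR was taken relative to h-SCP control in the same batch.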

Row | nH | Compound
1 | 1.07 | KFTLSLDVPTNIMNLLFNIAKAKNLRAQAAANAHLMAQI-NH2 [SEQ ID NO: 107, KFTLSLDVPTNIMNLLFNIAKAKNLRAQAAANAHLMAQI-NH2]
2 | 0.74 | LSLDVPTNIMNLLFNIAKAKNLRAQAAANAHLMAQI-NH2 [SEQ ID NO: 109, LSLDVPINIMNLLFNIAKAKNLRAQAAANAHLMAQI-NH2]

Same assay, conditions: Table 13; h-SCP control pA50 minus test compound pA50 within same assay batch

Row | Compound | Log DR
3 | CKFTLSLDVPTNIMNLLFNIAKAKNLRAQAAANAHLMAQI-NH2 [SEQ ID NO: 2, CKFTLSLDVPTNIMNLLFNIAKAKNLRAQAAANAHLMAQI-NH2] | 0.72
4 | TKFCLSLDVPTNIMNLLFNIAKAKNLRAQAAANAHLMAQI-NH2 [SEQ ID NO: 5, TKFCLSLDVPTNIMNLLFNIAKAKNLRAQAAANAHLMAQI-NH2] | 0.76
5 | TKFTCSLDVPTNIMNLLFNIAKAKNLRAQAAANAHLMAQI-NH2 [SEQ ID NO: 6, TKFTCSLDVPTNIMNLLFNIAKAKNLRAQAAANAHLMAQI-NH2] | 0.61
6 | TKFTLCLDVPTNIMNLLFNIAKAKNLRAQAAANAHLMAQI-NH2 [SEQ ID NO: 7, TKFTLCLDVPTNIMNLLFNIAKAKNLRAQAAANAHLMAQI-NH2] | 2.08
7 | TKFTLSCDVPTNIMNLLFNIAKAKNLRAQAAANAHLMAQI-NH2 [SEQ ID NO: 8, TKFTLSCDVPTNIMNLLFNIAKAKNLRAQAAANAHLMAQI-NH2] | 2.86
8 | TKFTLSLCVPTNIMNLLFNIAKAKNLRAQAAANAHLMAQI-NH2 [SEQ ID NO: 9, TKFTLSLCVPTNIMNLLFNIAKAKNLRAQAAANAHLMAQI-NH2] | 1.89
9 | TKFTLSLDVCTNIMNLLFNIAKAKNLRAQAAANAHLMAQI-NH2 [SEQ ID NO: 11, TKFTLSLDVCTNIMNLLFNIAKAKNLRAQAAANAHLMAQI-NH2] | 0.82
10 | TKFTLSLDVPTCIMNLLFNIAKAKNLRAQAAANAHLMAQI-NH2 [SEQ ID NO: 13, TKFTLSLDVPTCIMNLLFNIAKAKNLRAQAAANAHLMAQI-NH2] | −0.01
11 | TKFTLSLDVPTNCMNLLFNIAKAKNLRAQAAANAHLMAQI-NH2 [SEQ ID NO: 14, TKFTLSLDVPTNCMNLLFNIAKAKNLRAQAAANAHLMAQI-NH2] | >2
12 | TKFTLSLDVPTNIMNCLFNIAKAKNLRAQAAANAHLMAQI-NH2 [SEQ ID NO: 17, TKFTLSLDVPTNIMNCLFNIAKAKNLRAQAAANAHLMAQI-NH2] | 0.02
13 | TKFTLSLDVPTNIMNLLFCIAKAKNLRAQAAANAHLMAQI-NH2 [SEQ ID NO: 20, TKFTLSLDVPTNIMNLLFCIAKAKNLRAQAAANAHLMAQI-NH2] | 0.52
14 | TKFTLSLDVPTNIMNLLFNCAKAKNLRAQAAANAHLMAQI-NH2 [SEQ ID NO: 21, TKFTLSLDVPTNIMNLLFNCAKAKNLRAQAAANAHLMAQI-NH2] | 0.77
15 | TKFTLSLDVPTNIMNLLFNIACAKNLRAQAAANAHLMAQI-NH2 [SEQ ID NO: 23, TKFTLSLDVPTNIMNLLFNIACAKNLRAQAAANAHLMAQI-NH2] | 1.13
16 | TKFTLSLDVPTNIMNLLFNIAKACNLRAQAAANAHLMAQI-NH2 [SEQ ID NO: 25, TKFTLSLDVPTNIMNLLFNIAKACNLRAQAAANAHLMAQI-NH2] | 0.35
17 | TKFTLSLDVPTNIMNLLFNIAKAKNLRACAAANAHLMAQI-NH2 [SEQ ID NO: 30, TKFTLSLDVPTNIMNLLFNIAKAKNLRACAAANAHLMAQI-NH2] | 1.28
18 | TKFTLSLDVPTNIMNLLFNIAKAKNLRAQAAACAHLMAQI-NH2 [SEQ ID NO: 34, TKFTLSLDVPTNIMNLLFNIAKAKNLRAQAAACAHLMAQI-NH2] | >3.19
19 | TKFTLSLDVPTNIMNLLFNIAKAKNLRAQAAANAHCMAQI-NH2 [SEQ ID NO: 37, TKFTLSLDVPTNIMNLLFNIAKAKNLRAQAAANAHCMAQI-NH2] | 1.05

Other lines, results leading:

Row | Log DR | Compound
20 | −0.08 | CC[C@H](C)[C@H](NC(=O)[C@H](CCC(N)=O)NC(=O)[C@H](C)NC(=O)[C@H](CCSC)NC(=O)[C@H](CC(C)C)NC(=O)[C@H](Cc1c[nH]cn1)NC(=O)[C@H](C)NC(=O)[C@H](CC(N)=O)NC(=O)[C@H](C)NC(=O)[C@H](C)NC(=O)[C@H](C)NC(=O)[C@H](CCC(N)=O)NC(=O)[C@H](C)NC(=O)[C@H](CCCNC(=N)N)NC(=O)[C@H](CC(C)C)NC(=O)[C@H](CC(N)=O)NC(=O)[C@H](CCCCN)NC(=O)[C@H](C)NC(=O)[C@H](CCCCN)NC(=O)[C@H](C)NC(=O)[C@@H](NC(=O)[C@H](CC(N)=O)NC(=O)[C@H](Cc1ccccc1)NC(=O)[C@H](CC(C)C)NC(=O)[C@H](CSC1CC(=O)N(CC)C1=O)NC(=O)[C@H](CC(N)=O)NC(=O)[C@H](CCSC)NC(=O)[C@@H](NC(=O)[C@H](CC(N)=O)NC(=O)[C@@H](NC(=O)[C@@H]1CCCN1C(=O)[C@@H](NC(=O)[C@H](CC(=O)O)NC(=O)[C@H](CC(C)C)NC(=O)[C@H](CO)NC(=O)[C@H](CC(C)C)NC(=O)[C@@H](NC(=O)[C@H](Cc1ccccc1)NC(=O)[C@H](CCCCN)NC(=O)[C@@H](N)[C@@H](C)O)[C@@H](C)O)C(C)C)[C@@H](C)O)[C@@H](C)CC)[C@@H](C)CC)C(N)=O (stereo partly drawn) [SEQ ID NO: 54, TKFTL SLDVP TNIMN C(-NES)LFNI AKAKN LRAQA AANAH LMAQI-NH2] (H-TKFTLSLDVPTNIMNC(Succinimide(1-Et,3-yl))LFNIAKAKNLRAQAAANAHLMAQI-NH2; N-terminus assumed)
21 | 0.72 | TCFTLSLDVPTNIMNLLFNIAKAKNLRAQAAANAHLMAQI-NH2 [SEQ ID NO: 3, TCFTLSLDVPTNIMNLLFNIAKAKNLRAQAAANAHLMAQI-NH2]
22 | 1.03 | TKCTLSLDVPTNIMNLLFNIAKAKNLRAQAAANAHLMAQI-NH2 [SEQ ID NO: 4, TKCTLSLDVPTNIMNLLFNIAKAKNLRAQAAANAHLMAQI-NH2]
23 | 1.30 | TKFTLSLDCPTNIMNLLFNIAKAKNLRAQAAANAHLMAQI-NH2 [SEQ ID NO: 10, TKFTLSLDCPTNIMNLLFNIAKAKNLRAQAAANAHLMAQI-NH2]
24 | 1.72 | TKFTLSLDVPCNIMNLLFNIAKAKNLRAQAAANAHLMAQI-NH2 [SEQ ID NO: 12, TKFTLSLDVPCNIMNLLFNIAKAKNLRAQAAANAHLMAQI-NH2]
25 | 0.90 | TKFTLSLDVPTNICNLLFNIAKAKNLRAQAAANAHLMAQI-NH2 [SEQ ID NO: 15, TKFTLSLDVPTNICNLLFNIAKAKNLRAQAAANAHLMAQI-NH2]
26 | 0.76 | TKFTLSLDVPTNIMCLLFNIAKAKNLRAQAAANAHLMAQI-NH2 [SEQ ID NO: 16, TKFTLSLDVPTNIMCLLFNIAKAKNLRAQAAANAHLMAQI-NH2]
27 | 1.11 | TKFTLSLDVPTNIMNLCFNIAKAKNLRAQAAANAHLMAQI-NH2 [SEQ ID NO: 18, TKFTLSLDVPTNIMNLCFNIAKAKNLRAQAAANAHLMAQI-NH2]
28 | 1.67 | TKFTLSLDVPTNIMNLLCNIAKAKNLRAQAAANAHLMAQI-NH2 [SEQ ID NO: 19, TKFTLSLDVPTNIMNLLCNIAKAKNLRAQAAANAHLMAQI-NH2]
29 | 0.08 | TKFTLSLDVPTNIMNLLFNIAKAKCLRAQAAANAHLMAQI-NH2 [SEQ ID NO: 26, TKFTLSLDVPTNIMNLLFNIAKAKCLRAQAAANAHLMAQI-NH2]
30 | 0.76 | TKFTLSLDVPTNIMNLLFNIAKAKNCRAQAAANAHLMAQI-NH2 [SEQ ID NO: 27, TKFTLSLDVPTNIMNLLFNIAKAKNCRAQAAANAHLMAQI-NH2]
31 | 0.16 | TKFTLSLDVPTNIMNLLFNIAKAKNLCAQAAANAHLMAQI-NH2 [SEQ ID NO: 28, TKFTLSLDVPTNIMNLLFNIAKAKNLCAQAAANAHLMAQI-NH2]
32 | 0.42 | TKFTLSLDVPTNIMNLLFNIAKAKNLRAQAAANACLMAQI-NH2 [SEQ ID NO: 36, TKFTLSLDVPTNIMNLLFNIAKAKNLRAQAAANACLMAQI-NH2]
33 | >2.95 | TKFTLSLDVPTNIMNLLFNIAKAKNLRAQAAANAHLCAQI-NH2 [SEQ ID NO: 38, TKFTLSLDVPTNIMNLLFNIAKAKNLRAQAAANAHLCAQI-NH2]
34 | 0.55 | TKFTLSLDVPTNIMNLLFNIAKAKNLRAQAAANAHLMACI-NH2 [SEQ ID NO: 40, TKFTLSLDVPTNIMNLLFNIAKAKNLRAQAAANAHLMACI-NH2]
35 | 2.07 | TKFTLSLDVPTNIMNLLFNIAKAKNLRAQAAANAHLMAQC-NH2 [SEQ ID NO: 41, TKFTLSLDVPTNIMNLLFNIAKAKNLRAQAAANAHLMAQC-NH2]

Same assay, conditions: Table 14

Row | pA50 | Compound
36 | 8.15 | TKFTLSLDVPTNIMNLLFNIAKAKNLRC(-IA-PEG MW20000)QA AANAH LMAQI-NH2 (TKFTLSLDVPTNIMNLLFNIAKAKNLRC(IA‑PEG 20 kDa)QAAANAHLMAQI-NH2) [SEQ ID NO: 102]

Same assay, conditions: Table 14; % of the maximum response obtained to h-SCP

Row | αmax | Compound
37 | 111.1% | TKFTLSLDVPTNIMNLLFNIAKAKNLRC(-IA-PEG MW20000)QA AANAH LMAQI-NH2 (TKFTLSLDVPTNIMNLLFNIAKAKNLRC(IA‑PEG 20 kDa)QAAANAHLMAQI-NH2) [SEQ ID NO: 102]

Same assay, conditions: Table 14; Hill slope

Row | nH | Compound
38 | 1.05 | TKFTLSLDVPTNIMNLLFNIAKAKNLRC(-IA-PEG MW20000)QA AANAH LMAQI-NH2 (TKFTLSLDVPTNIMNLLFNIAKAKNLRC(IA‑PEG 20 kDa)QAAANAHLMAQI-NH2) [SEQ ID NO: 102]

Same assay, conditions: in the presence of 100 nM anti-sauvagine-30; maximal response constrained to 100%

Row | pA50 approximate value | Compound
39 | ~6.89 | TKFTLSLDVPTNIMNLLFNIAKAKNLRC(-IA-PEG MW20000)QA AANAH LMAQI-NH2 (TKFTLSLDVPTNIMNLLFNIAKAKNLRC(IA‑PEG 20 kDa)QAAANAHLMAQI-NH2) [SEQ ID NO: 102]

Same assay, conditions: tested as antagonists of h-SCP at 10 μM; read-out: receptor affinity (KA)

Row | Kd | Compound
40 | < 10 µM | DVPTNIMNLLFNIAKAKNLRAQAAANAHLMAQI-NH2 [SEQ ID NO: 112, DVPTNIMNLLFNIAKAKNLRAQAAANAHLMAQI-NH2]
41 | < 10 µM | LDVPTNIMNLLFNIAKAKNLRAQAAANAHLMAQI-NH2 [SEQ ID NO: 111, LDVPTNIMNLLFNIAKAKNLRAQAAANAHLMAQI-NH2]
42 | < 10 µM | SLDVPTNIMNLLFNIAKAKNLRAQAAANAHLMAQI-NH2 [SEQ ID NO: 110, SLDVPTNIMNLLFNIAKAKNLRAQAAANAHLMAQI-NH2]
